Results from patent publication US10576064B2, “Spiro[3H-indole-3,2′-pyrrolidin]-2(1H)-one compounds and derivatives as MDM2-P53 inhibitors” (Boehringer Ingelheim International GmbH, priority 2014, dated 2020).
pIC50: −log10 of the molar value.

biological target: p53-MDM2 interaction (GST-MDM2 protein aa 23-117 / biotinylated p53 wt peptide) (Homo sapiens (Human), UniProt Q00987); assay: MDM2-p53 Inhibition AlphaScreen; type: biochemical; conditions: 20 nM GST-MDM2 (aa 23-117), 20 nM biotinylated p53 wt peptide
Excerpt: MDM2-p53 Inhibition AlphaScreen

SMILES	pIC50
CS(=O)(=O)Nc1ccc(N2C[C@H]3[C@@H](C2=O)[C@H](c2cccc(Cl)c2F)[C@]2(C(=O)Nc4cc(Cl)ccc42)N3CC2CC2)cc1F [Compound I-302]	7.43
O=CNc1ccc(N2CC[C@H]3[C@@H](C2=O)[C@H](c2cccc(Cl)c2F)[C@]2(C(=O)Nc4cc(Cl)ccc42)N3CC2CC2)cc1 [Compound I-298]	7.07
CC1CC1CN1[C@H]2CCN(c3ccc(C(=O)O)cc3F)C(=O)[C@H]2[C@H](c2cccc(Cl)c2F)[C@]12C(=O)Nc1cc(Cl)ccc12 (stereo partly drawn) [Compound I-190]	7.35
O=C(O)c1ccc(N2CC[C@H]3[C@@H](C2=O)[C@H](c2cccc(Cl)c2F)[C@]2(C(=O)Nc4cc(Cl)ccc42)N3CC2CC2)cc1 [Compound I-171]	8.40
COC(=O)c1ccc(N2C[C@H]3[C@@H](C2=O)[C@H](c2cccc(Cl)c2F)[C@]2(C(=O)Nc4cc(Cl)ccc42)N3CC2CC2)cc1 [Compound I-123]	7.42
O=C(O)c1ccc(N2C[C@H]3[C@@H](C2=O)[C@H](c2cccc(Cl)c2F)[C@]2(C(=O)Nc4cc(Cl)ccc42)N3CC2CCC2)cc1 [Compound I-221]	8.15
CCOc1cccc(CN2[C@@H]3CN(c4ccc(C(=O)O)cc4)C(=O)[C@@H]3[C@@H](c3cccc(Cl)c3F)[C@@]23C(=O)Nc2cc(Cl)ccc23)c1 [Compound I-239]	5.94
O=C(CO)c1ccc(N2C[C@H]3[C@@H](C2=O)[C@H](c2cccc(Cl)c2F)[C@]2(C(=O)Nc4cc(Cl)ccc42)N3CC2CC2)cc1 [Compound I-262]	7.68
CS(=O)(=O)c1ccc(N2CC[C@H]3[C@@H](C2=O)[C@H](c2cccc(Cl)c2F)[C@]2(C(=O)Nc4cc(Cl)ccc42)N3CC2CC2)cc1 [Compound I-76]	7.38
CCOC(=O)CNc1ccc(N2CC[C@H]3[C@@H](C2=O)[C@H](c2cccc(Cl)c2F)[C@]2(C(=O)Nc4cc(Cl)ccc42)N3CC2CC2)cc1 [Compound I-304]	6.72
O=C1NCC[C@H]2[C@@H]1[C@H](c1cccc(Cl)c1F)[C@]1(C(=O)Nc3cc(Cl)c(F)cc31)N2CC1CC1 [Compound I-17]	6.49
O=C(O)c1csc(N2C[C@H]3[C@@H](C2=O)[C@H](c2cccc(Cl)c2F)[C@]2(C(=O)Nc4cc(Cl)ccc42)N3CC2CC2)n1 [Compound I-233]	8.05
O=C1[C@@H]2[C@H](CCN1c1ccc(-c3nnn[nH]3)cc1)N(CC1CC1)[C@@]1(C(=O)Nc3cc(Cl)ccc31)[C@H]2c1cccc(Cl)c1F [Compound I-72]	7.77
O=C(O)c1ccc(N2CC[C@@H]3[C@H](C2=O)[C@@H](c2cccc(Cl)c2F)[C@@]2(C(=O)Nc4cc(Cl)ccc42)N3CC2CC2)cc1 [Compound I-172]	6.52
O=C(O)c1cccc(N2CC[C@H]3[C@@H](C2=O)[C@H](c2cccc(Cl)c2F)[C@]2(C(=O)Nc4cc(Cl)ccc42)N3CC2CC2)c1 [Compound I-175]	5.67
CC1CC1CN1[C@H]2CCN(c3ccc(C(=O)O)cc3)C(=O)[C@H]2[C@H](c2cccc(Cl)c2F)[C@]12C(=O)Nc1cc(Cl)ccc12 (stereo partly drawn) [Compound I-196]	7.70
O=C(O)c1ccc(N2CC[C@H]3[C@@H](C2=O)[C@H](c2cccc(Cl)c2F)[C@]2(C(=O)Nc4cc(Cl)ccc42)N3CC2CC2)cc1 [Compound I-170]	7.96
O=C(O)c1ccc(N2C[C@H]3[C@@H](C2=O)[C@H](c2cccc(Cl)c2F)[C@]2(C(=O)Nc4cc(Cl)ccc42)N3CCC(F)(F)F)cc1 [Compound I-226]	7.92
NC(=O)c1ccc(N2C[C@H]3[C@@H](C2=O)[C@H](c2cccc(Cl)c2F)[C@]2(C(=O)Nc4cc(Cl)ccc42)N3CC2CC2)cc1C(F)(F)F [Compound I-281]	7.17
CCOc1cccc(CN2[C@H]3CCN(c4ccc(C(=O)O)cc4)C(=O)[C@H]3[C@H](c3cccc(Cl)c3F)[C@]23C(=O)Nc2cc(Cl)ccc23)c1 [Compound I-185]	8.52

SMILES	pIC50
O=C(O)c1ccc(N2CC[C@H]3[C@@H](C2=O)[C@H](c2cccc(Cl)c2F)[C@]2(C(=O)Nc4cc(Cl)c(F)cc42)N3CC2CC2)cc1 [Compound I-173]	7.54
COc1cccc(CN2[C@H]3CCN(Cc4ccc(C(=O)O)cc4)C(=O)[C@H]3[C@H](c3cccc(Cl)c3F)[C@]23C(=O)Nc2cc(Cl)ccc23)c1 [Compound I-214]	7.47
O=C(O)c1ccc(N2C[C@H]3[C@@H](C2=O)[C@H](c2ccnc(Cl)c2F)[C@]2(C(=O)Nc4cc(Cl)ccc42)N3CC2CC2)cc1 [Compound I-244]	8.40
Nc1ccc(N2CC[C@H]3[C@@H](C2=O)[C@H](c2cccc(Cl)c2F)[C@]2(C(=O)Nc4cc(Cl)ccc42)N3CC2CC2)cc1 [Compound I-292]	6.79
O=C(O)c1ccc(N2C[C@H]3[C@@H](C2=O)[C@H](c2cccc(Cl)c2F)[C@]2(C(=O)Nc4cc(Cl)ccc42)N3CC2CC2)cc1 [Compound I-217]	8.30
CC(C)(C)CN1[C@H]2CN(c3ccc(C(=O)O)cc3)C(=O)[C@H]2[C@H](c2cccc(Cl)c2F)[C@]12C(=O)Nc1cc(Cl)ccc12 [Compound I-228]	7.96
CCOc1cccc(CN2[C@H]3CCN(c4ccc(C(=O)OC)cc4)C(=O)[C@H]3[C@H](c3cccc(Cl)c3F)[C@]23C(=O)Nc2cc(Cl)ccc23)c1 [Compound I-71]	7.17
O=C(O)c1ccc(N2CC[C@H]3[C@@H](C2=O)[C@H](c2cccc(Cl)c2F)[C@]2(C(=O)Nc4cc(Cl)ccc42)N3CC2CC2)c(O)c1 [Compound I-264]	7.31
COc1cc(C(=O)O)ccc1N1CC[C@H]2[C@@H](C1=O)[C@H](c1cccc(Cl)c1F)[C@]1(C(=O)Nc3cc(Cl)ccc31)N2CC1CC1 [Compound I-179]	7.15
CCOc1cccc(CN2[C@H]3CN(c4ccc(C(=O)NO)cc4)C(=O)[C@H]3[C@H](c3cccc(Cl)c3F)[C@]23C(=O)Nc2cc(Cl)ccc23)c1 [Compound I-283]	8.40
COc1cc(C(=O)O)ccc1N1CC[C@H]2[C@@H](C1=O)[C@H](c1cccc(Cl)c1F)[C@]1(C(=O)Nc3cc(Cl)ccc31)N2CC1CC1C (stereo partly drawn) [Compound I-194]	6.94
CCOc1cccc(CN2[C@H]3CCN(c4ccc(C(=O)O)cc4)C(=O)[C@H]3[C@H](c3cccc(Cl)c3F)[C@]23C(=O)Nc2cc(Cl)ccc23)c1 [Compound I-186]	8.70
CCOc1cccc(CN2[C@H]3CN(c4ccc(C(=O)O)cc4)C(=O)[C@H]3[C@H](c3cccc(Cl)c3F)[C@]23C(=O)Nc2cc(Cl)ccc23)c1 [Compound I-237]	8.70
CNC(=O)c1ccc(N2CC[C@H]3[C@@H](C2=O)[C@H](c2cccc(Cl)c2F)[C@]2(C(=O)Nc4cc(Cl)ccc42)N3CC2CC2)cc1 [Compound I-270]	7.57
CCOc1cccc(CN2[C@H]3CN(c4ccc(C(=O)O)cc4)C(=O)[C@H]3[C@H](c3cccc(Cl)c3F)[C@]23C(=O)Nc2nc(Cl)ccc23)c1 [Compound I-240]	8.40
CC(C)(C)CN1[C@H]2CCNC(=O)[C@H]2[C@H](c2cccc(Cl)c2F)[C@]12C(=O)Nc1cc(Cl)ccc12 [Compound I-15]	6.82
COCc1cc(N2CC[C@H]3[C@@H](C2=O)[C@H](c2cccc(Cl)c2F)[C@]2(C(=O)Nc4cc(Cl)ccc42)N3CC2CC2)ccn1 [Compound I-90]	6.91
O=C1NCC[C@H]2[C@@H]1[C@H](c1cccc(Cl)c1F)[C@]1(C(=O)Nc3cc(Cl)ccc31)N2CC1CC1 [Compound I-1]	7.07
O=C1NCC[C@H]2[C@@H]1[C@H](c1cccc(Cl)c1F)[C@]1(C(=O)Nc3cc(Br)ccc31)N2CC1CC1 [Compound I-21]	7.19
